The values that follow come from ChEMBL document CHEMBL4251700, “Novel Staphyloxanthin Inhibitors with Improved Potency against Multidrug Resistant Staphylococcus aureus” (ACS Med Chem Lett, 2018).

SMILES strings stand for the structures. Numbering of substitutions follows the chain as printed. pIC50: −log10 of the molar value. Activity calls are given as the source filed them.

As usually defined, the pIC50 is the negative decadic logarithm of the IC50, by convention in mol/L. The term half-life denotes the time needed for the level to fall by half in the phase considered. In general, CC50 refers to the concentration at which the toxic effect on the cells reaches its halfway point.

Data set [1] has as its target T1, 4,4'-diapophytoene desaturase (4,4'-diaponeurosporene-forming) (Staphylococcus aureus (strain Newman), UniProt O07855).
T1 sequence (O07855 whole entry): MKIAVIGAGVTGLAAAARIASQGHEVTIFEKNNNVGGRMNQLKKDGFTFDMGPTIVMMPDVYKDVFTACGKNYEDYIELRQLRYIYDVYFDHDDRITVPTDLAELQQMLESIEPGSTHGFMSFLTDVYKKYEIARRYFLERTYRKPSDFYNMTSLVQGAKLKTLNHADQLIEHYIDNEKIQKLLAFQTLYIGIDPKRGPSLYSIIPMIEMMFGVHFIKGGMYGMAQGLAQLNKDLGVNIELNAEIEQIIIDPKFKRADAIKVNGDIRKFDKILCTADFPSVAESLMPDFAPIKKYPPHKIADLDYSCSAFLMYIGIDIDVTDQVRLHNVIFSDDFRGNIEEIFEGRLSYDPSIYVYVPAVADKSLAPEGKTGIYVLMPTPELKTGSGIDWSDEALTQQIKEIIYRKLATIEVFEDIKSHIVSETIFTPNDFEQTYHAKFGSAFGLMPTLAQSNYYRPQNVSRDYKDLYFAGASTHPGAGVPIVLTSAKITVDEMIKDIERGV
Briefly: Inhibition of CrtN in Staphylococcus aureus Newman assessed as reduction in staphyloxanthin levels after 48 hrs by spectrophotometric method-based pigment inhibition assay. The arrangement: species or system Staphylococcus aureus subsp. aureus str. Newman.

Data set [2] has as its system Nannizzia gypsea. Briefly: Antifungal activity against Microsporum gypseum after 7 days by broth microdilution method. Type of data set: functional, organism-based. (In general: Broth dilution looks for growth in wells or tubes with falling amounts of substance.)
The subject of data set [3] is Staphylococcus aureus. Briefly: Antibacterial activity against linezolid-resistant Staphylococcus aureus NRS271 infected in BALB/c mouse assessed as reduction of bacterial burden in liver at 0.4 mg, ip bid administered at 12 hrs prior to bacterial infection dosed at 12 intervals for 4.5 days. Type of data set: functional, organism-based.
Data set [4] deals with Staphylococcus aureus. In words: Antibacterial activity against linezolid-resistant Staphylococcus aureus NRS271 infected in BALB/c mouse assessed as reduction of bacterial burden in heart at 0.4 mg, ip bid for 3.5 days administered 6 hrs post bacterial infection measured 84 hrs post infection. The data set is classed as functional. Further details: scale not given: the % may be the effect or the level left.

The target of data set [5] is T2, 4,4'-diapophytoene desaturase (4,4'-diaponeurosporene-forming) (Staphylococcus aureus (strain Mu50 / ATCC 700699)) (UniProt Q99R76).
T2 sequence (whole entry): T1 sequence (O07855 whole entry)
In words: Inhibition of CrtN in Staphylococcus aureus Mu50 assessed as H2O2-induced bacterial death by measuring reduction in bacterial survival at 1 uM preincubated for 24 hrs followed by H2O2 addition measured after 30 mins by serial dilution method. Particulars: Staphylococcus aureus subsp. aureus Mu50.

Data set [6] deals with Staphylococcus aureus. Briefly: Antibacterial activity against vancomycin-intermediate Staphylococcus aureus Mu50 infected in BALB/c mouse assessed as reduction of bacterial burden in liver at 0.4 mg, ip bid administered at 12 hrs prior to bacterial infection dosed at 12 intervals for 4.5 days. The data set is classed as functional, organism-based.
In data set [7] the test system is Staphylococcus aureus. Briefly: Antibacterial activity against linezolid-resistant Staphylococcus aureus NRS271 infected in BALB/c mouse assessed as reduction of bacterial burden in heart at 0.1 mg, ip bid for 3.5 days administered 6 hrs post bacterial infection measured 84 hrs post infection. Type of data set: functional. The arrangement: scale not given: the % may be the effect or the level left.

Data set [8] deals with Staphylococcus aureus. Briefly: Antibacterial activity against linezolid-resistant Staphylococcus aureus NRS271 infected in BALB/c mouse assessed as log reduction of colony forming units in liver at 0.1 mg, ip bid for 3.5 days administered 6 hrs post bacterial infection measured 84 hrs post infection. The data set is classed as functional.
Data set [9] relates to Staphylococcus aureus. In words: Antibacterial activity against linezolid-resistant Staphylococcus aureus NRS271 infected in BALB/c mouse assessed as log reduction of colony forming units in liver at 0.4 mg, ip bid for 3.5 days administered 6 hrs post bacterial infection measured 84 hrs post infection. Type of data set: functional.
Data set [10] concerns Staphylococcus aureus. Briefly: Induction of sensitization to immune clearance towards Staphylococcus aureus Newman infected in human whole blood assessed as bacterial killing by measuring bacterial survival after 6 hrs by serial dilution method relative to control. Type of data set: functional.
Data set [11] has as its target T3, 4,4'-diapophytoene desaturase (4,4'-diaponeurosporene-forming) (Staphylococcus aureus (strain MW2), UniProt Q8NUQ6).
T3 sequence (Q8NUQ6 whole entry): T1 sequence (O07855 whole entry) with R500Q
In words: Inhibition of CrtN in methicillin-resistant Staphylococcus aureus LAC USA300 assessed as reduction in staphyloxanthin levels after 48 hrs by spectrophotometric method-based pigment inhibition assay. Further details: species or system Staphylococcus aureus subsp. aureus USA300.

In data set [12] the test system is Staphylococcus aureus. Briefly: Antibacterial activity against vancomycin-intermediate Staphylococcus aureus Mu50 infected in BALB/c mouse assessed as reduction of bacterial burden in heart at 0.1 mg, ip bid for 3.5 days administered 6 hrs post bacterial infection measured 84 hrs post infection relative to control. Type of data set: functional. Further details: scale not given: the % may be the effect or the level left.

For data set [13], the target named is T1, 4,4'-diapophytoene desaturase (4,4'-diaponeurosporene-forming). Briefly: Inhibition of CrtN in linezolid-resistant Staphylococcus aureus NRS271 assessed as reduction in staphyloxanthin levels after 48 hrs by spectrophotometric method-based pigment inhibition assay.
Data set [14] has the same target. Briefly: Inhibition of Staphylococcus aureus Newman […]-tagged CrtN expressed in Escherichia coli BL21(DE3))/pET28a::CrtN assessed as reduction in staphyloxanthin levels using diapophytoene as substrate after overnight incubation. Further details: species or system Staphylococcus aureus subsp. aureus str. Newman.
Data set [15] deals with Staphylococcus aureus. Briefly: Antibacterial activity against vancomycin-intermediate Staphylococcus aureus Mu50 infected in BALB/c mouse assessed as reduction of bacterial burden in liver at 0.4 mg, ip bid for 3.5 days administered 6 hrs post bacterial infection measured 84 hrs post infection. The data set is classed as functional, organism-based.
The subject of data set [16] is Staphylococcus aureus. Briefly: Antibacterial activity against Staphylococcus aureus Newman infected in BALB/c mouse assessed as reduction of bacterial burden in liver at 0.4 mg, ip bid administered at 12 hrs prior to bacterial infection dosed at 12 intervals for 4.5 days relative to control. Type of data set: functional. The arrangement: scale not given: the % may be the effect or the level left.

A short description of data set [17]: Half life in human liver microsomes at 2 uM by LC-MS/MS analysis. The data set is classed as ADME, microsome.
Data set [18] is described as follows: Cytotoxicity against HEK293T cells after 72 hrs by CCK8 assay. Type of data set: cell-based, HEK-293T. The settings on record: human. Background: Formazan colour is commonly taken as a measure of viable cells.
In data set [19] the target is T4, 4,4'-diapophytoene desaturase (4,4'-diaponeurosporene-forming) (Staphylococcus aureus (strain Newman)) (UniProt O07855).
T4 sequence (whole entry): T1 sequence (O07855 whole entry)
Briefly: Inhibition of CrtN in Staphylococcus aureus Newman assessed as H2O2-induced bacterial death by measuring reduction in bacterial survival at 1 uM pretreated for 24 hrs followed by H2O2 addition measured after 30 mins by serial dilution method. Particulars: Staphylococcus aureus subsp. aureus str. Newman.

The test system of data set [20] is Staphylococcus aureus. In words: Growth inhibition of vancomycin-intermediate Staphylococcus aureus Mu50 at 0.2 mM incubated overnight measured at 30 mins interval. The settings on record: 0.5 h, 200 µM. The data set is classed as organism-based.

In the case of `CN(C/C=C/C=C/c1ccc(C(F)(F)F)cc1)Cc1ccc2c(c1)OCCO2.Cl`, the negative logarithm of the IC50 (pIC50) in data set [1] is 8.66; in data set [11], 8.26; in data set [13], 9.22; in data set [14], 6.57. Besides, in data set [2], the outcome was inactive. Further, the result in [3], in data set [6] and in data set [15] was Active. The Activity in [4] is on record as greater than 90%; in data set [7], greater than 90%; in data set [8] it was “<=0.75 log10CFU”; in data set [9], “<=0.75 log10CFU”; in [12], 99%; in data set [16], 86.7%. For the same compound, the inhibition entry in data set [5] and in data set [19] was “Active” in each case. Further, the Survival in data set [10] was less than 0.5%. Also, in [17], the half-life at 2 µM was determined as 7.9 min. Moreover, the half-maximal cytotoxic concentration (CC50) at 72 h in [18] turned out to be 50300 nM. In addition, the “growth inhibition (GI)” value in [20] is given as “Non-Toxic”.
